In patent US7468375B2 (Pfizer Inc., priority 2004, dated 2008) one finds EC50 and IC50 data, which are given here for 21 compounds.

Where two headings read alike, the source gives them in different places.

Assay [1] has as its system RF strain of HIV-1 in CEM-SS cells. The assay is described as follows: HIV-1 cell protection assay (XTT dye reduction). It counts as cell-based. The gist of the method: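 CEM-SS cells infected with HIV-1 RF (moi 0.025–0.819) or mock-infected, 2×10^4 cells/well with half-log compound dilutions for six days. Viability by XTT/PMS reduction (4 h), absorbance 450 nm, as % of uninfected untreated cells. Therapeutic index = CC50/EC50.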
For orientation: Tetrazolium assays rely on reduction of a dye to a coloured formazan, in cell work by metabolically active cells.

Assay [2] has as its target T1, Full-length wild type HIV-1 integrase (SF1) (Human immunodeficiency virus type 1 group M subtype B, UniProt P04585).
T1 construct: made in house; host or cells: E. coli BL21 (DE3)
In words: Integrase strand-transfer scintillation proximity assay. The note with it: strand transfer, 50 min at 37° C., 246 nM integrase, 50 nM host DNA; read-out: IC50. It counts as biochemical. The gist of the method: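 Recombinant full-length wild-type HIV-1 integrase (aa 1-288), E. coli-expressed, tested on biotinylated pre-processed U5 LTR viral ds-DNA with CA overhang bound to streptavidin SPA beads. [3H]-thymidine-labelled host ds-DNA serves as target; strand transfer read by scintillation proximity. A 3′ di-deoxy viral DNA control checks non-specific binding.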
On the technique in general: SPA uses beads or plates that emit light when radiolabelled molecules are held near them.

Where [3] appears, read: Human immunodeficiency virus 1, CEM-SS, 144 h, HIV-1 RF, CEM-SS cells, XTT dye reduction, six days, read-out: EC50.

For orientation: EC50 means the concentration giving half of the maximal effect. A word on the IC50: it is the concentration that gives 50% inhibition. As to `CC1(C)OC[C@H](COCc2cn(Cc3ccc(F)cc3)c3cnc(C(=O)NO)cc23)O1` [Example 111, 3-({[(4S)-2,2-dimethyl-1,3-dioxolan-4-yl]methoxy}methyl)-1-(4-fluorobenzyl)-N-hydroxy-1H-pyrrolo[2,3-c]pyridine-5-carboxamide], in assay [1] (setting [3]), the EC50 stood at 77.4 nM. In assay [2], the half-inhibitory concentration (IC50) came to 20 nM.

Take `O=C(NO)c1cc2c(CNCC(O)c3ccccc3)cn(Cc3ccc(F)cc3F)c2cn1` (stereo not drawn) [Example 84, 1-(2,4-Difluorobenzyl)-N-hydroxy-3-{[(2-hydroxy-2-phenylethyl)amino]methyl}-1H-pyrrolo[2,3-c]pyridine-5-carboxamide]: the EC50 in assay [1] (setting [3]) was determined as 51 nM. In addition, the IC50 in assay [2] was determined as 316 nM.

With `CN(Cc1cnn(-c2ccccc2)c1)Cc1cn(Cc2ccc(F)cc2F)c2cnc(C(=O)NO)cc12` [Example 93, 1-(2,4-Difluorobenzyl)-N-hydroxy-3-({methyl[(1-phenyl-1H-pyrazol-4-yl)methyl]amino}methyl)-1H-pyrrolo[2,3-c]pyridine-5-carboxamide], in assay [1] (setting [3]), the EC50 was determined as 71 nM. Besides, the IC50 in assay [2] stood at 187 nM.

Turning to `O=C1CN(Cc2cn(Cc3ccc(F)cc3)c3cnc(C(=O)NO)cc23)CCN1` [Example 15, 1-(4-Fluorobenzyl)-N-hydroxy-3-[(3-oxopiperazin-1-yl)methyl]-1 pyrrolo[2,3-c]pyridine-5-carboxamide], in assay [1] (setting [3]), the EC50 was found to be 11 nM. For the same compound, in assay [2], the concentration for half-maximal inhibition (IC50) amounted to 41 nM.

Take `CN(C)CCNCc1cn(Cc2ccc(F)cc2F)c2cnc(C(=O)NO)cc12` [Example 72, 1-(2,4-Difluorobenzyl)-3-({[2-(dimethylamino)ethyl]amino}methyl)-N-hydroxy-1H-pyrrolo[2,3-c]pyridine-5-carboxamide]: the EC50 in assay [1] (setting [3]) is 29 nM. Moreover, the IC50 in assay [2] turned out to be 658 nM.

The compound `CN(O)C(=O)c1cc2c(COC[C@@H]3COC(C)(C)O3)cn(Cc3ccc(F)cc3)c2cn1` [Example 110, 3-({[(4R)-2,2-Dimethyl-1,3-dioxolan-4-yl]methoxy}methyl)-1-(4-fluorobenzyl)-N-hydroxy-N-methyl-1H-pyrrolo[2,3-c]pyridine-5-carboxamide] registered an EC50 in assay [1] (Human immunodeficiency virus 1, CEM-SS, 144 h) of 341 nM. The IC50 in assay [2] was found to be 14 nM.

For `O=C(NO)c1cc2c(CN[C@@H](CO)c3ccccc3)cn(Cc3ccc(F)cc3F)c2cn1` [Example 59, 1-(2,4-Difluorobenzyl)-N-hydroxy-3-({[(1R)-2-hydroxy-1-phenylethyl]amino}methyl)-1H-pyrrolo[2,3-c]pyridine-5-carboxamide], the EC50 in assay [1] (setting [3]) came to 18 nM. The IC50 in assay [2] was determined as 221 nM.

In the case of `CONC(=O)c1cc2ncn(Cc3ccc(F)cc3)c2cn1` [Example 22, 3-(4-Fluorobenzyl)-N-methoxy-3H-imidazo[4,5-c]pyridine-6-carboxamide], the EC50 in assay [1] (setting [3]) was determined as 190 nM. Further, in assay [2], the IC50 came to 1300 nM.

As for `O=C1CN(Cc2cn(Cc3ccc(F)cc3)c3cnc(C(=O)NOCc4ccccc4)cc23)CCN1` [Example 102, N-(Benzyloxy)-1-(4-fluorobenzyl)-3-[(3-oxopiperazin-1-yl)methyl]-1H-pyrrolo[2,3-c]pyridine-5-carboxamide], the EC50 in assay [1] (setting [3]) was found to be 33 nM. Also, in assay [2], the IC50 came to 810 nM.

Consider `CCO/C=C/c1c(C(=O)NO)ncc2c1ccn2Cc1ccc(F)cc1` [Example 38, 4-[(E)-2-Ethoxyvinyl]-1-(4-fluorobenzyl)-N-hydroxy-1H-pyrrolo[2,3-c]pyridine-5-carboxamide], for which the EC50 in assay [1] (setting [3]) was 12 nM. The IC50 in assay [2] worked out at 145 nM.

With `CONC(=O)c1cc2c(CN3CC[C@@H]4C(=O)NC[C@@H]4C3)cn(Cc3ccc(F)cc3F)c2cn1` (racemic) [Example 17, rac 1-(2,4-Difluorobenzyl)-N-methoxy-3-{[(3aR*,7aS*)-1-oxooctahydro-5H-pyrrolo[3,4-c]pyridin-5-yl]methyl}-1H-pyrrolo[2,3-c]pyridine-5-carboxamide], the EC50 in assay [1] (setting [3]) amounted to 25 nM. Also, the IC50 in assay [2] was determined as 300 nM.

Regarding `O=C(NO)c1cc2c(CNCCC3CCOCC3)cn(Cc3ccc(F)cc3F)c2cn1` [Example 96, 1-(2,4-Difluorobenzyl)-N-hydroxy-3-({[2-(tetrahydro-2H-pyran-4-yl)ethyl]amino}methyl)-1H-pyrrolo[2,3-c]pyridine-5-carboxamide], the EC50 in assay [1] (setting [3]) amounted to 30 nM. In assay [2], the IC50 was 511 nM.

Consider `CCN1CCCC1CNCc1cn(Cc2ccc(F)cc2F)c2cnc(C(=O)NO)cc12` (stereo not drawn) [Example 45, 1-(2,4-Difluorobenzyl)-3-({[(1-ethylpyrrolidin-2-yl)methyl]amino}methyl)-N hydroxy-1H-pyrrolo[2,3-c]pyridine-5-carboxamide], for which the EC50 in assay [1] (HIV-1 RF, CEM-SS cells, XTT dye reduction, six days, read-out: EC50) was found to be 51 nM. Moreover, the IC50 in assay [2] came to 295 nM.

Take `CC1C(=O)NCCN1Cc1cn(Cc2ccc(F)cc2)c2cnc(C(=O)N(C)O)cc12` (stereo not drawn) [Example 33, 1-(4-Fluorobenzyl)-N-hydroxy-N-methyl-3-[(2-methyl-3-oxopiperazin-1-yl)methyl]-1H-pyrrolo[2,3-c]pyridine-5-carboxamide]: the EC50 in assay [1] (setting [3]) amounted to 210 nM. For the same compound, the IC50 in assay [2] came to 463 nM.

Turning to `CN(O)C(=O)c1cc2ncn(Cc3ccc(F)cc3)c2cn1` [Example 23, 3-(4-Fluorobenzyl)-N-hydroxy-N-methyl-3-H-imidazo[4,5-c]pyridine-6-carboxamide], the EC50 in assay [1] (setting [3]) was 780 nM. Further, in assay [2], the IC50 stood at 1300 nM.

On to `O=C(NO)c1cc2c(CNCc3ccc(C(F)(F)F)nc3)cn(Cc3ccc(F)cc3F)c2cn1` [Example 88, 1-(2,4-Difluorobenzyl)-N-hydroxy-3-[({[6-(trifluoromethyl)pyridin-3-yl]methyl}amino)methyl]-1H-pyrrolo[2,3-c]pyridine-5-carboxamide], for which, in assay [1] (setting [3]), the EC50 worked out at 16 nM. The IC50 in assay [2] was 238 nM.

For the compound `CCCN(Cc1cn(Cc2ccc(F)cc2F)c2cnc(C(=O)NO)cc12)CC1CC1` [Example 73, 3-{[(Cyclopropylmethyl)(propyl)amino]methyl}-1-(2,4-difluorobenzyl)-N-hydroxy-1H-pyrrolo[2,3-c]pyridine-5-carboxamide], the EC50 in assay [1] (setting [3]) came out at 35 nM. For the same compound, the IC50 in assay [2] was 658 nM.

For the compound `CN(CCc1ccccn1)Cc1cn(Cc2ccc(F)cc2F)c2cnc(C(=O)NO)cc12` [Example 63, 1-(2,4-Difluorobenzyl)-N-hydroxy-3-{[methyl(2-pyridin-2-ylethyl)amino]methyl}-1H-pyrrolo[2,3-c]pyridine-5-carboxamide], the half-maximal effective concentration (EC50) in assay [1] (setting [3]) stood at 16 nM. Further, in assay [2], the IC50 is 424 nM.

On to `CN(O)C(=O)c1cc2c(CN3CC[C@@H]4C(=O)NC[C@@H]4C3)cn(Cc3ccc(F)cc3F)c2cn1` (racemic) [Example 18, rac 1-(2,4-difluorobenzyl)-N-hydroxy-N-methyl-3-{[(3aR*,7aS*)-1-oxooctahydro-5H-pyrrolo[3,4-c]pyridin-5-yl]methyl}-1H-pyrrolo[2,3-c]pyridine-5-carboxamide], for which the EC50 in assay [1] (setting [3]) turned out to be 49 nM. The IC50 in assay [2] is 470 nM.

For `O=C(NO)c1cc2c(CNCCN3CCCC3)cn(Cc3ccc(F)cc3F)c2cn1` [Example 57, 1-(2,4-Difluorobenzyl)-N-hydroxy-3-{[(2-pyrrolidin-1-ylethyl)amino]methyl}-1H-pyrrolo[2,3-c]pyridine-5-carboxamide], the EC50 in assay [1] (setting [3]) was 24 nM. The IC50 in assay [2] came to 542 nM.

For the compound `Cc1cnc(CNCc2cn(Cc3ccc(F)cc3F)c3cnc(C(=O)NO)cc23)cn1` [Example 66, 1-(2,4-Difluorobenzyl)-N-hydroxy-3-({[(5-methylpyrazin-2-yl)methyl]amino}methyl)-1H-pyrrolo[2,3-c]pyridine-5-carboxamide], in assay [1] (setting [3]), the EC50 came to 11 nM. In assay [2], the IC50 is 357 nM.
